In the Kinase Knowledgebase extract (Sharma et al. 2016):

These compounds were tested against EGFR (UniProt P00533) (assay: Inhibition of EGFR Kinase Activity).
Chain of EGFR (P00533 whole entry, looked up): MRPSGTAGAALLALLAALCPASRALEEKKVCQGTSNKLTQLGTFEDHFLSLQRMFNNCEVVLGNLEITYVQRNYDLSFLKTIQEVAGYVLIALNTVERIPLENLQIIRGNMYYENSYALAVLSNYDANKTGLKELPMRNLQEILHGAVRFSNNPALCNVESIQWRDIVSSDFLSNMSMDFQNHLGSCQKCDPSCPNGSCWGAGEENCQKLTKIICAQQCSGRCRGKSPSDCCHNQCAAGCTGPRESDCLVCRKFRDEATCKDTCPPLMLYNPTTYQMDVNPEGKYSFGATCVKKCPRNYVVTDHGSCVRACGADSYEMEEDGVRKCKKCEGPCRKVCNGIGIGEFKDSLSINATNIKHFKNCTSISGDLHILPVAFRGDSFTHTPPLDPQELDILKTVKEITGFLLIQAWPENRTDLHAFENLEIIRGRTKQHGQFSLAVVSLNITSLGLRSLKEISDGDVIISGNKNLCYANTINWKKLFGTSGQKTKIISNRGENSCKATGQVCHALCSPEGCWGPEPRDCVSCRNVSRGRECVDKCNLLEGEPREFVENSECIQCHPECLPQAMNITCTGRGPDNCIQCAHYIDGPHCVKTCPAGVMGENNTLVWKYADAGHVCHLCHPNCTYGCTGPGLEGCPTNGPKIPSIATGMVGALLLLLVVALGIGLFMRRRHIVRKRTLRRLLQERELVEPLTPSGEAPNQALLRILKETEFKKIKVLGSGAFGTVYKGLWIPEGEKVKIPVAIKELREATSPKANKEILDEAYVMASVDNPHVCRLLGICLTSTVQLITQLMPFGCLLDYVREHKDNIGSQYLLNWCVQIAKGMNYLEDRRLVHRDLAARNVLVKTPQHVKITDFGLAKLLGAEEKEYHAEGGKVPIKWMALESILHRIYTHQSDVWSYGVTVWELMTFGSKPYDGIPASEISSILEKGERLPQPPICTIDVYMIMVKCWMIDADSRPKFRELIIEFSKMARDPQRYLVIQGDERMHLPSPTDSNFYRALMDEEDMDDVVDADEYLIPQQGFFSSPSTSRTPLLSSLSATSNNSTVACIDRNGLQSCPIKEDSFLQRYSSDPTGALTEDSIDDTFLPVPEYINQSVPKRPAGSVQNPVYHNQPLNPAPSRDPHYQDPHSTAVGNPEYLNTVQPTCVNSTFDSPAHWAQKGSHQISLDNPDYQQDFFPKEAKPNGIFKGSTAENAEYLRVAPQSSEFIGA

IC50, < 50 µM:
CC#CC(=O)Nc1cccc(Nc2ncnc(N(CC)c3cc(Cl)cc4ccccc34)n2)c1, C=CC(=O)Nc1cccc(Nc2ncnc(N(CC)c3ccc(OCc4ccccc4)cc3)n2)c1, C=CCN(c1cccc(S(=O)(=O)c2ccc([N+](=O)[O-])cc2)c1)c1ncnc(Nc2cccc(NC(=O)C=C)c2)n1, C=CC(=O)Nc1cccc(Nc2ncnc(Nc3ccc(OCc4cccc(F)c4)cc3)n2)c1, O=C(/C=C/c1cccc(Nc2ncnc(Nc3ccc4c(cnn4Cc4ccccc4)c3)n2)c1)NCCCN1CCOCC1, C=CC(=O)Nc1cc(Nc2ncnc(Nc3cccc(Cl)c3)n2)ccc1OCCCN1CCOCC1, CC#CC(=O)Nc1cccc(Nc2ncnc(Nc3ccc(OC)c(OCCOC)c3)n2)c1, CC#CC(=O)Nc1cccc(Nc2ncnc(N(CC)c3cccc(CC(=O)OC)c3)n2)c1, C=CCN(c1ccc(OCCO)cc1)c1ncnc(Nc2ccc(NC(=O)C=C)cc2)n1, C=CCN(c1ncnc(Nc2ccc(NC(=O)C=C)cc2)n1)C1CC1c1ccc(Cl)cc1 (stereo unspecified), CC#CC(=O)Nc1cccc(Nc2ncnc(Nc3ccc(F)c(Cl)c3)n2)c1, CC#CC(=O)Nc1cccc(Nc2ncnc(N(C)c3ccc4c(ccn4Cc4ccccc4)c3)n2)c1, CCN(c1ccc2NN(=Cc2c1)Cc3ccccn3)c4ncnc(Nc5cccc(NC(=O)C=C)c5)n4, C=CC(=O)Nc1cccc(Nc2ncnc(N(CC)c3ccc(OCC)c(OCC)c3)n2)c1, C=CCN(c1ccc(OC)c(OCCOC)c1)c1ncnc(Nc2cccc(NC(=O)C=C)c2)n1, C=CC(=O)Nc1cccc(Nc2ncnc(Nc3ccc(OCC)c(OCC)c3)n2)c1, CC#CC(=O)Nc1cc(Nc2ncnc(Nc3ccc(OCc4ccccc4)c(Cl)c3)n2)ccc1OCCCN1CCOCC1, C=CC(=O)Nc1cccc(Nc2ncnc(N(CC)c3ccc(OCCOC)c(OC)c3)n2)c1, C=CC(=O)Nc1cccc(Nc2ncnc(NN3CCCc4ccc(Cl)cc43)n2)c1, CC#CC(=O)Nc1cc(Nc2ncnc(N(C)c3ccc4c(cnn4Cc4ccccc4)c3)n2)ccc1OC, C=CC(=O)Nc1cccc(Nc2ncnc(N(C)C3CC3c3ccccc3)n2)c1 (stereo unspecified), C=CC(=O)Nc1ccc(Nc2ncnc(Nc3ccc(OCC)c(OCC)c3)n2)cc1, C=CC(=O)Nc1ccc(Nc2ncnc(NC3CC3c3ccccc3)n2)cc1 (stereo unspecified), C=CC(=O)Nc1ccc(Nc2ncnc(N(CC)c3ccc(OC)c(OC)c3)n2)cc1, C=CCN(c1cccc(Cl)c1)c1ncnc(Nc2cccc(NC(=O)C=C)c2)n1, C=CC(=O)Nc1ccc(Nc2ncnc(N(C)c3ccc4c(cnn4Cc4ccccc4)c3)n2)cc1OC, C=CCN(c1ccc(OCCC)c(OCCC)c1)c1ncnc(Nc2ccc(NC(=O)C=C)cc2)n1, C=CC(=O)Nc1cccc(Nc2ncnc(N(C)c3ccc(OCc4ccccc4)c(Cl)c3)n2)c1, CC#CC(=O)Nc1cccc(Nc2ncnc(Nc3ccc4c(cnn4Cc4ccccc4)c3)n2)c1, C=CC(=O)Nc1ccc(Nc2ncnc(N(C)c3cccc(C)c3)n2)cc1, CC#CC(=O)Nc1cccc(Nc2ncnc(Nc3ccc(C(=O)OC)cc3)n2)c1, CC#CC(=O)Nc1cccc(Nc2ncnc(N(CC)c3cccc(C)c3)n2)c1, C=CC(=O)Nc1ccc(Nc2ncnc(Nc3ccc4c(ccn4Cc4ccccc4)c3)n2)cc1, C=CC(=O)N(CCCN1CCOCC1)c1cccc(Nc2ncnc(Nc3cc(Cl)cc4ccccc34)n2)c1, C=CC(=O)Nc1cccc(Nc2ncnc(N(CC)c3cccc4ccccc34)n2)c1, C=CC(=O)Nc1ccc(Nc2ncnc(N(CC)c3cc(Cl)cc4ccccc34)n2)cc1, C=CCN(c1ccc(OCCC)c(OCCC)c1)c1ncnc(Nc2cccc(NC(=O)C=C)c2)n1, C=CC(=O)Nc1cccc(Nc2ncnc(N(C)n3c(=O)n(C(=O)C(C)(C)C)c4ccccc43)n2)c1, CC#CC(=O)Nc1cccc(Nc2ncnc(N(C)c3cccc(C(N)=O)c3)n2)c1, C=CCN(c1ccc(F)c(Cl)c1)c1ncnc(Nc2cccc(NC(=O)C#CC)c2)n1, CC#CC(=O)Nc1cccc(Nc2ncnc(Nc3ccc(OC)c(OC)c3)n2)c1, CC#CC(=O)Nc1cc(Nc2ncnc(Nc3ccc(OCc4ccccc4)c(Cl)c3)n2)ccc1OCCCC1CCN(C)CC1, C=CC(=O)Nc1ccc(Nc2ncnc(N(C)c3ccc4c(ccn4Cc4ccccc4)c3)n2)cc1, C=CC(=O)Nc1ccc(Nc2ncnc(N(CC)c3ccc4c(cnn4Cc4ccccc4)c3)n2)cc1, C=CC(=O)Nc1cccc(Nc2ncnc(Nc3ccc(OC)c(OC)c3)n2)c1, C=CCN(c1ccc(OCCOC)c(OC)c1)c1ncnc(Nc2cccc(NC(=O)C#CC)c2)n1, C=CC(=O)Nc1cccc(Nc2ncnc(N(C)c3ccc(OC)c(OC)c3)n2)c1, C=CC(=O)Nc1ccc(Nc2ncnc(Nc3ccc(OCCOC)c(OC)c3)n2)cc1, C=CC(=O)Nc1cccc(Nc2ncnc(Nc3ccc4nc(Cc5ccccc5)[nH]c4c3)n2)c1, C=CC(=O)Nc1ccc(Nc2ncnc(Nc3ccc4c(cnn4Cc4ccccc4)c3)n2)cc1OC, C=CC(=O)Nc1cccc(Nc2ncnc(Nc3cccc(Br)c3)n2)c1, C=CC(=O)Nc1cccc(Nc2ncnc(Nc3ccc4c(cnn4Cc4cccc(F)c4)c3)n2)c1, C=CC(=O)N(CCCN1CCOCC1)c1cccc(Nc2ncnc(Nc3ccc4c(cnn4Cc4ccccc4)c3)n2)c1, CC#CC(=O)Nc1cccc(Nc2ncnc(N(CC)c3ccc(F)c(Cl)c3)n2)c1, C=CC(=O)Nc1ccc(Nc2ncnc(N(C)c3ccc(OC)c(OCCOC)c3)n2)cc1, C=CC(=O)Nc1ccc(Nc2ncnc(N(C)c3ccc(OCCOC)c(OC)c3)n2)cc1, C=CC(=O)Nc1cccc(Nc2ncnc(NN3CCCc4cc(OC)ccc43)n2)c1, C=CC(=O)Nc1cccc(Nc2ncnc(NN3CCCc4ccc(C(F)(F)F)cc43)n2)c1, C#CCC(=O)Nc1cccc(Nc2ncnc(NN3CCCc4cc(C)ccc43)n2)c1, CC#CC(=O)Nc1cccc(Nc2ncnc(N(CC)n3c(=O)n(C(=O)C(C)(C)C)c4ccccc43)n2)c1, C=CC(=O)Nc1cccc(Nc2ncnc(N(CC)C3CC3c3ccc(Cl)cc3)n2)c1 (stereo unspecified), C=CC(=O)Nc1cc(Nc2ncnc(N(C)c3ccc4c(cnn4Cc4ccccc4)c3)n2)ccc1OCCCC1CCN(C)CC1, CC#CC(=O)Nc1cccc(Nc2ncnc(N(CC)c3ccc(OCc4ccccc4)cc3)n2)c1, CC#CC(=O)Nc1cccc(Nc2ncnc(N(CC)c3cc(Cl)ccc3C)n2)c1, C=CCN(c1cccc(C(N)=O)c1)c1ncnc(Nc2cccc(NC(=O)C#CC)c2)n1, C=CC(=O)Nc1ccc(Nc2ncnc(N(C)n3c(=O)[nH]c4ccccc43)n2)cc1, CC#CC(=O)Nc1cc(Nc2ncnc(Nc3ccc4c(ccn4Cc4ccccc4)c3)n2)ccc1OCCCN1CCOCC1, C=CC(=O)Nc1cccc(Nc2ncnc(Nc3ccc(OCCC)c(OCCC)c3)n2)c1, CN(c1ccc2NN(=Cc2c1)Cc3ccccn3)c4ncnc(Nc5ccc(NC(=O)C=C)cc5)n4, C=CC(=O)Nc1ccc(Nc2ncnc(N(CC)c3cccc(C(N)=O)c3)n2)cc1, C=CC(=O)Nc1cccc(Nc2ncnc(N(C)c3cc(Cl)cc4ccccc34)n2)c1, C=CC(=O)Nc1cccc(Nc2ncnc(N(CC)n3c(=O)[nH]c4ccccc43)n2)c1, CC#CC(=O)Nc1cccc(Nc2ncnc(Nc3cccc(C)c3)n2)c1, C=CCN(c1ccc(C(=O)OC)cc1)c1ncnc(Nc2ccc(NC(=O)C=C)cc2)n1, C=CC(=O)Nc1ccc(Nc2ncnc(Nc3ccc4c(cnn4Cc4ccccc4)c3)n2)cc1, CC#CC(=O)Nc1cccc(Nc2ncnc(N(C)c3ccc(OCC)c(OCC)c3)n2)c1, CC#CC(=O)Nc1cc(Nc2ncnc(N(C)c3ccc(OCc4ccccc4)c(Cl)c3)n2)ccc1OCCCN1CCOCC1, C=CC(=O)Nc1cccc(Nc2ncnc(Nc3ccc(F)c(Cl)c3)n2)c1, CC#CC(=O)Nc1cccc(Nc2ncnc(Nc3ccc(OCC)c(OCC)c3)n2)c1, C=CC(=O)N(CCCN1CCOCC1)c1cccc(Nc2ncnc(Nc3cccc(C)c3)n2)c1, C=CC(=O)Nc1ccc(Nc2ncnc(Nc3ccc(OC)c(OC)c3)n2)cc1, C=CCN(c1cccc(CC(=O)OC)c1)c1ncnc(Nc2cccc(NC(=O)C#CC)c2)n1, C#CCC(=O)Nc1cccc(Nc2ncnc(NN3CCCc4cc(Cl)ccc43)n2)c1, C=CC(=O)Nc1ccc(Nc2ncnc(N(C)c3ccc(OCc4ccccc4)cc3)n2)cc1, C=CC(=O)N(CCCN1CCOCC1)c1cccc(Nc2ncnc(Nc3cc(Cl)ccc3C)n2)c1, C=CC(=O)Nc1cccc(Nc2ncnc(N(C)c3cccc4ccccc34)n2)c1
